Data reported in paper PMC9862096, “Interaction of a Homologous Series of Amphiphiles with P-glycoprotein in a Membrane Environment—Contributions of Polar and Non-Polar Interactions” (Pharmaceutics, 2023).

Assays:
[1] = cited from earlier work
[2] = Calculation of local concentrations of the amphiphiles in membrane and aqueous medium from partition coefficients; conditions: for fraction associated with the lipid bilayer of the native membrane: 0.107 mg of protein per mL; for concentration in the aqueous phase: total amphiphile 50 µM, partition to native membranes; for fraction associated with the membranes: IAAP displacement conditions, 1 mg of protein per mL; for concentration associated with the membrane: total concentration 60 µM; for fraction of amphiphile in the membrane associated with proteins: low amphiphile concentrations, away from saturation
From the text: A major limitation of the models used to analyze the effects on P–gp’s ATPase activity and IAAP displacement is the use of global concentrations. Interaction of the amphiphiles with P–gp is considered to occur from the membrane and, therefore, what is relevant is the amphiphile concentration in the lipid bilayer where P–gp is embedded. The importance of using local concentration in the analysis of the interaction of small molecules with membrane proteins has been pointed out before (e.g., [33, 35, 37, 46, 84, 85]), but, unfortunately, it is still overlooked. The local concentrations may be calculated from the partition coefficient of the amphiphiles between the aqueous media and the model membranes with the relevant lipid composition. […] An intermediate affinity is obtained for NBD–LysoMPE in spite of its longer aliphatic chain. This is due to its bigger and much polar (charged) head group. From the partition coefficients one may calculate the local concentration of amphiphile in the membrane for a given total concentration of amphiphile. At the concentration of native membranes used in the ATPase assays (0.107 mg of protein per mL), 2% of the NBD–C4 is associated with the lipid bilayer of the native membrane (see Supplementary Information, Section S10 for details). As expected, for the more lipophilic amphiphiles, the fraction associated with the lipid bilayer increases, being 53% for NBD–C8 and 13% for NBD–LysoMPE. In the IAAP displacement experiments, the amount of native membranes is almost 10 times higher (1 mg of protein per mL), leading to 18% of NBD–C4 associated with the membranes, and 91% and 58% for the case of NBD–C8 and NBD–LysoMPE, respectively.
S10 – Calculation of the local concentration of the amphiphiles in the membrane and in the […]
The concentration of phospholipids (PL) in a solution containing native membranes is calculated from the concentration of protein and the ratio of PLs to prot eins (0.57 g PL/g P , average PL molar mass of 750 g/mol). The volume of the lipid bilayer (VLb) is then calculated considering a density of 1 g/cm3 for the phospholipids.
Typical values for the conditions of the ATPase activity assays are given be low:
The volume occupied by proteins in the membrane (VP) was calculated considering a density of 1.2 g/cm3 (being 8.9 × 10‐5 × VT, and the total volume of native membranes is 1.5 × 10‐4 × VT.
The IAAP displacement assay was performed with a protein concentration of 1 g/L, leading to proportionally higher volumes of the lipid bilayer and proteins.
Knowing the partition coefficients of the ligand one may calculate the fractions in each medium: […]
The fraction of amphiphile in the membrane (lipid bilayer plus membrane proteins), is given by:
MLbP PLKVKV KVWL→→ →b WP WM+ fffVK VK VVK VK VLLL WL=+= =bPP PM , WP L++ ++→→ →→b WP WLbP PWP Lb WPbP P where WMK → is the partition coeff icient obtained experimentally between the aqueous media P and the native membranes.
The above equations are only valid if the system is away from saturation (at low concentrations of amphiphiles relative to the binding agents). At relatively high amphiphile concentrations, the proteins may become saturated, leading to a decrease in the apparent partition coefficient and to an increase in the relative fraction of amphiphile associated with the lipid bilayer.
From the above equations one may calculate directly the concentration of amphiphile in each […]
To evaluate if the aqueous medium is saturated, this concentration sho uld be co mpared with the ligand critical aggregation concentration. P ossible perturbation of the lipid bilayer is best evaluated from the mo la r ratio of lipids to ligand bound (PL:L)

[3] = cited from earlier work; for critical aggregation concentration (CAC): 25 °C, aqueous; for increase of CAC in the presence of co-solvent: e.g. 1 M trehalose
mouse P–gp (mP–gp) = biological target: T1, mouse P–gp (mP–gp) (Mus musculus, UniProt P21447); experiment: P–gp ATPase activity (vanadate-sensitive, end point Pi release) in native membranes; assay type: biochemical; conditions: Equation (S1), total modulator concentration; only activation for NBD–C4; constraint K1≤K2 for NBD–C8 and NBD–LysoMPE; [75% confidence interval]; read-out: K1, dissociation constant for P–gp activation
T1 construct: made in house; host or cells: High-Five insect cells (Invitrogen), recombinant baculovirus; total membrane vesicles
T1 sequence (P21447 whole entry): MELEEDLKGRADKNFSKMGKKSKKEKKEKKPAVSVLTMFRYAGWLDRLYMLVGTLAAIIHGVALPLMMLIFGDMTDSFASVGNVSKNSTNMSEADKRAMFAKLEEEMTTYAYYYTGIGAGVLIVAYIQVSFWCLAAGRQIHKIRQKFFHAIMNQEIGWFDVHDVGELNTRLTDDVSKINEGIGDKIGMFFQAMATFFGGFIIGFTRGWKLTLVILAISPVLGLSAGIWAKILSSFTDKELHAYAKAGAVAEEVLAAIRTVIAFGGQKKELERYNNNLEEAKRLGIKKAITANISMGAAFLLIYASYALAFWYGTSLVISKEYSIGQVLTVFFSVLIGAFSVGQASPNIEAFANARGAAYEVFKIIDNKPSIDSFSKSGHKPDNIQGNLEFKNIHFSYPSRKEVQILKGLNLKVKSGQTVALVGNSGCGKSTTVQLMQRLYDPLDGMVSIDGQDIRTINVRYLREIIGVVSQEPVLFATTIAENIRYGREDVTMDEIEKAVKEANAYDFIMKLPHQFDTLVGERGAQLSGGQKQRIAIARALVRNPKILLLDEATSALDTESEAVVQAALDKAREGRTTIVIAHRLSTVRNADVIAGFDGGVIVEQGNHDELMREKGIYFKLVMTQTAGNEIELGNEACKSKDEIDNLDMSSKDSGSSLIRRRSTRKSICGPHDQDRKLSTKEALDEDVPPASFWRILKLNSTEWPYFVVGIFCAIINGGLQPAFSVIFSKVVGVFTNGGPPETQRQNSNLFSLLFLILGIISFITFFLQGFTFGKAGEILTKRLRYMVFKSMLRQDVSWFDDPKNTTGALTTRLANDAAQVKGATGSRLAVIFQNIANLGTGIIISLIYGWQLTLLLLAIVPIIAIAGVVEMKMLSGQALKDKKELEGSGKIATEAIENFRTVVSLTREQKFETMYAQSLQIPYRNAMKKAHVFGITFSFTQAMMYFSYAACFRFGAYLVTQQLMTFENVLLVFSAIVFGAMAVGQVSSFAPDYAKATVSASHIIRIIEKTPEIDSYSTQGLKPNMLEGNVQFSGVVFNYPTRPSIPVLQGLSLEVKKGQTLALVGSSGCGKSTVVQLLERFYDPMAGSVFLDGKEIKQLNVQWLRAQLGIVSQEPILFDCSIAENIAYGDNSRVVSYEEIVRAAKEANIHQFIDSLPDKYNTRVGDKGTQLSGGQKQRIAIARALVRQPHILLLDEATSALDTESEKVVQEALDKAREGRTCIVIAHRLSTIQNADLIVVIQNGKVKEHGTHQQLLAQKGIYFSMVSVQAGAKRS

Compound	LogKP, partition coefficient for POPC bilayers [1]	fraction associated with the lipid bilayer of the native membrane ([2]; ATPase assay conditions) [%]	concentration in the aqueous phase ([2]; ATPase assay conditions) [µM]	concentration in the aqueous phase ([2]; IAAP assay conditions) [µM]	fraction associated with the membranes [2] [%]	critical aggregation concentration (CAC) [3] [µM]	Kd (mouse P–gp (mP–gp)) [µM]	LogKP, association with POPC bilayers [1]	concentration associated with the membrane ([2]; ATPase assay conditions) [µM]	concentration associated with the membrane ([2]; IAAP assay conditions (membrane 10-fold higher)) [µM]	fraction of amphiphile in the membrane associated with proteins [2] [%]	increase of CAC in the presence of co-solvent [3]
CCCCCCCCCCCCCC(=O)OCC(O)COP(=O)(O)OCCNc1ccc([N+](=O)[O-])c2nonc12 (stereo not shown) [NBD–LysoMPE]	4.2	13	12	2	58	4	13					
CCCCNc1ccc([N+](=O)[O-])c2nonc12 [NBD–C4]		2			18	250	84	2.99	1.4	11	72	not significantly affected
CCCCCCCCNc1ccc([N+](=O)[O-])c2nonc12 [NBD–C8]		53	21	4	91	1	17	4.67			15	4 fold
